Test system: GH-secretion
Experiment: GH-secretion inhibiting test: depression of serum GH-levels in the rat (radio-immuno-assay)
Format: in vivo
Details: male rats, s.c.
Experimental: This test is carried out employing male rats. The test-substance is administered at varying, logarithmically staggered doses employing at least 5 rats per dose. 1, 6 and 18 hours after the administration of the test substance blood is taken. The determination of the serum GH-level is effected by radio-immuno-assay. The compounds of formula I are active in this test when administered at a dosage in the range of from 0.01 to 50 μg/kg s.c.

C[C@H](N)C(=O)NCC(=O)N[C@H]1CSSC[C@@H](C(=O)O)NC(=O)[C@H](CO)NC(=O)[C@H]([C@@H](C)O)NC(=O)[C@H](Cc2ccccc2)NC(=O)[C@H]([C@@H](C)O)NC(=O)[C@H](CCCCN)NC(=O)[C@H](Cc2c[nH]c3ccccc23)NC(=O)[C@H](Cc2ccccc2)NC(=O)[C@H](Cc2ccccc2)NC(=O)[C@H](CC(N)=O)NC(=O)[C@H](CCCCN)NC1=O [natural somatostatine, somatostatine] was tested, and the “ID50 in the GH-secretion inhibiting test after 1 hour” value (blood taken 1 hour after administration) was 0.95 mg/kg and the “ID50 in the GH-secretion inhibiting test after 6 hours” value (blood taken 6 hours after administration) was “extremely high and therefore not determinable”.
